The values below come from ChEMBL document CHEMBL3217679, “Synthesis and biological activity profile of novel 2-cinnamylidene-1,3-diones related to coruscanone A: promising new antileishmanial agents” (Medchemcomm, 2012).

Each structure is given as a SMILES string. pIC50: −log10 of the molar value. Calls of active or inactive are those of the source. The rule behind the calls is not given here.

The subject of data set [1] is Plasmodium falciparum. In words: Antiparasitic activity against chloroquine-resistant Plasmodium falciparum W2 assessed as growth inhibition at 16 uM after 48 hrs by pLDH assay. Type of data set: functional, organism-based.
Another data set concerns Pichia kudriavzevii. In words: Antifungal activity against Candida krusei ATCC 6258 assessed as growth inhibition after 46 to 50 hrs by modified CLSI method. Type of data set: functional, organism-based.
The subject of another data set is Aspergillus fumigatus. Briefly: Antifungal activity against Aspergillus fumigatus ATCC 90906 assessed as growth inhibition after 46 to 50 hrs by alamar blue assay. Type of data set: functional, organism-based. A general note: The colour change of resazurin is a common sign of viable cells or microbes.
The nature of data set [2]: Cytotoxicity against African green monkey Vero cells by neutral red assay. It is filed as cell-based. The conditions noted are these: chlorocebus sabaeus, read-out: TC50 (the source's name).
A further data set relates to Leishmania donovani. In words: Antiparasitic activity against Leishmania donovani S1 promastigotes assessed as growth inhibition after 72 hrs by alamar blue assay. Type of data set: functional, organism-based. The conditions noted are these: S1, 72 h.
Another data set concerns Candida albicans. Briefly: Antifungal activity against Candida albicans ATCC 90028 assessed as growth inhibition after 46 to 50 hrs by modified CLSI method. It is filed as functional, organism-based.
For a further data set, the system named is Nakaseomyces glabratus. In words: Antifungal activity against Candida glabrata ATCC 90030 assessed as growth inhibition after 46 to 50 hrs by modified CLSI method. It is filed as functional, organism-based.
Data set [3] relates to Plasmodium falciparum. Briefly: Antiparasitic activity against chloroquine-sensitive Plasmodium falciparum D6 assessed as growth inhibition at 16 uM after 48 hrs by pLDH assay. Type of data set: functional, organism-based.
A further data set relates to Cryptococcus neoformans. Briefly: Antifungal activity against Cryptococcus neoformans ATCC 90113 assessed as growth inhibition after 70 to 74 hrs by modified CLSI method. Type of data set: functional, organism-based.

Take `C/C=C/C=C/C=C1C(=O)CCCC1=O`: the “growth inhibition (GI)” value in the data set with Plasmodium falciparum [1], in the data set with Aspergillus fumigatus, in the data set with Candida albicans and in the data set with Plasmodium falciparum [3] was “inactive” throughout. Moreover, the pIC50 was under 4.22 in the data set on Pichia kudriavzevii, 4.25 with Leishmania donovani, under 4.22 in the data set with Nakaseomyces glabratus and under 4.22 with Cryptococcus neoformans. In data set [2], the CC50 was over 25 µM. The IC90 in the data set on Leishmania donovani is over 100 µM.
In the case of `CC(=O)C(=C/C=C/c1ccccc1)C(C)=O`, the “growth inhibition (GI)” value in the data set with Plasmodium falciparum [1], in the data set on Aspergillus fumigatus, in the data set with Candida albicans and in the data set with Plasmodium falciparum [3] was “inactive” in each case. Besides, the pIC50 in the data set with Pichia kudriavzevii is under 4.22; in the data set with Leishmania donovani, 4.72; with Nakaseomyces glabratus it was under 4.22; in the data set with Cryptococcus neoformans, under 4.22. The CC50 in data set [2] was over 22.2 µM. Further, the IC90 in the data set on Leishmania donovani amounted to 52.3 µM.
On to `CC1(C)CC(=O)C(=C/C=C/c2ccc(F)cc2)C(=O)C1`, for which the “growth inhibition (GI)” value in the data set on Plasmodium falciparum [1], in the data set on Aspergillus fumigatus, in the data set on Candida albicans and in the data set with Plasmodium falciparum [3] was “inactive” throughout. The pIC50 in the data set on Pichia kudriavzevii was under 4.22; with Leishmania donovani, 4.97; with Nakaseomyces glabratus, 4.45; in the data set with Cryptococcus neoformans, 4.78. In addition, the CC50 in data set [2] is over 17.5 µM. In the data set with Leishmania donovani, the IC90 was 25 µM.
For the compound `COc1ccc(/C=C/C=C2C(=O)CC(c3ccccc3)CC2=O)cc1` (centres undefined), the “growth inhibition (GI)” value in the data set with Plasmodium falciparum [1], in the data set with Aspergillus fumigatus, in the data set on Candida albicans and in the data set with Plasmodium falciparum [3] was “inactive” in each case. Besides, the pIC50 in the data set on Pichia kudriavzevii was under 4.22; with Leishmania donovani it was 5.12; in the data set with Nakaseomyces glabratus, under 4.22; with Cryptococcus neoformans, under 4.22. Besides, the CC50 in [2] was over 14.3 µM. Further, in the data set on Leishmania donovani, the IC90 worked out at 14.7 µM.
For the compound `N=C(N)c1ccc(OCCCCCOc2ccc(C(=N)N)cc2)cc1` [PENTAMIDINE], in the data set with Leishmania donovani, the pIC50 was 5.42 and the IC90 was 12.4 µM. In addition, in the data set on Candida albicans, the “growth inhibition (GI)” value is “inactive”.
On to `O=C1CCCC(=O)C1=CC=C(c1ccccc1)c1ccccc1`, for which the “growth inhibition (GI)” value with Plasmodium falciparum [1], in the data set with Aspergillus fumigatus, in the data set on Candida albicans and with Plasmodium falciparum [3] was “inactive” throughout. The pIC50 was under 4.22 in the data set with Pichia kudriavzevii, 4.99 in the data set on Leishmania donovani, under 4.22 with Nakaseomyces glabratus and 4.84 in the data set with Cryptococcus neoformans. Moreover, the CC50 in [2] is over 15.7 µM. For the same compound, the IC90 in the data set with Leishmania donovani was 26.1 µM.
`COC(/C=C/c1ccccc1)=C1\C(=O)C=C(C)C1=O` [CORUSCANONE A]: the CC50 in data set [2] is 19.3 µM.
As to `CC1(C)CCC(=O)/C(=C\C=C\c2ccccc2)C1=O`, the “growth inhibition (GI)” value in the data set with Plasmodium falciparum [1], in the data set on Aspergillus fumigatus, in the data set on Candida albicans and in the data set with Plasmodium falciparum [3] was “inactive” throughout. Moreover, the pIC50 with Pichia kudriavzevii was under 4.22; in the data set on Leishmania donovani, 4.93; in the data set with Nakaseomyces glabratus, under 4.22; in the data set with Cryptococcus neoformans, 4.70. Besides, the CC50 in data set [2] is over 18.7 µM. For the same compound, in the data set on Leishmania donovani, the IC90 turned out to be 20.1 µM.
`CC(=O)/C(=C\C=C\c1ccccc1)C(=O)OC(C)(C)C`: the “growth inhibition (GI)” value in the data set with Plasmodium falciparum [1], in the data set on Aspergillus fumigatus, with Candida albicans and in the data set on Plasmodium falciparum [3] was “inactive” each time. In addition, the pIC50 with Pichia kudriavzevii is under 4.22; in the data set with Leishmania donovani, 4.33; in the data set with Nakaseomyces glabratus, under 4.22; in the data set with Cryptococcus neoformans, under 4.22. For the same compound, in [2], the CC50 was over 17.5 µM. The IC90 in the data set with Leishmania donovani turned out to be 99.2 µM.
`COc1ccc(/C=C/C=C2C(=O)CCC2=O)cc1`: the pIC50 with Pichia kudriavzevii is 4.62; in the data set on Leishmania donovani, 5.15; in the data set with Nakaseomyces glabratus, 4.46; with Cryptococcus neoformans it was 4.87. For the same compound, the “growth inhibition (GI)” value in the data set with Aspergillus fumigatus and in the data set with Candida albicans was “inactive” throughout. Moreover, the CC50 in data set [2] is over 19.6 µM. In addition, the IC90 with Leishmania donovani came to 19.8 µM.
Turning to `O=C1CCC(=O)C1=C/C=C/c1ccc(Br)cc1`, the “growth inhibition (GI)” value in the data set with Plasmodium falciparum [1], in the data set with Aspergillus fumigatus, in the data set on Candida albicans and in the data set with Plasmodium falciparum [3] was “inactive” each time. The pIC50 in the data set on Pichia kudriavzevii is under 4.22; in the data set with Leishmania donovani, 5.07; in the data set on Nakaseomyces glabratus, under 4.22; in the data set with Cryptococcus neoformans, 4.57. For the same compound, the CC50 in [2] was over 16.3 µM. The IC90 with Leishmania donovani amounted to 14.1 µM.
Turning to `C/C=C/C=C/C=C1C(=O)CC(C)(C)CC1=O`, the “growth inhibition (GI)” value in the data set on Plasmodium falciparum [1], in the data set with Aspergillus fumigatus, in the data set with Candida albicans and in the data set with Plasmodium falciparum [3] was “inactive” throughout. Also, the pIC50 with Pichia kudriavzevii is under 4.22; in the data set with Leishmania donovani, 4.34; in the data set on Nakaseomyces glabratus, under 4.22; with Cryptococcus neoformans, under 4.22. For the same compound, the CC50 in data set [2] was over 21.8 µM. Besides, the IC90 in the data set on Leishmania donovani was over 100 µM.
On to `CC1(C)CC(=O)C(=C/C=C/c2ccccc2)C(=O)C1`, for which the “growth inhibition (GI)” value in the data set on Plasmodium falciparum [1], with Aspergillus fumigatus, with Candida albicans and with Plasmodium falciparum [3] was “inactive” each time. For the same compound, the negative logarithm of the IC50 (pIC50) in the data set with Pichia kudriavzevii is under 4.22; in the data set with Leishmania donovani it was 4.70; in the data set on Nakaseomyces glabratus it was 4.45; with Cryptococcus neoformans, 4.72. Moreover, in data set [2], the CC50 was over 18.7 µM. In addition, in the data set with Leishmania donovani, the IC90 was 27.5 µM.
As for `CC(=O)C(=CC=C(c1ccccc1)c1ccccc1)C(C)=O`, the “growth inhibition (GI)” value in the data set on Plasmodium falciparum [1], in the data set on Aspergillus fumigatus, with Candida albicans and in the data set with Plasmodium falciparum [3] was “inactive” throughout. Also, the pIC50 in the data set with Pichia kudriavzevii is under 4.22; in the data set on Leishmania donovani it was 5.03; in the data set on Nakaseomyces glabratus, under 4.22; with Cryptococcus neoformans it was 4.45. The CC50 in data set [2] is over 16.4 µM. Moreover, in the data set on Leishmania donovani, the IC90 was 66.1 µM.
For the compound `CC(=O)C(=C/C=C/c1ccc(Br)cc1)C(C)=O`, the “growth inhibition (GI)” value in the data set on Plasmodium falciparum [1], in the data set on Aspergillus fumigatus, in the data set on Candida albicans and with Plasmodium falciparum [3] was “inactive” throughout. Besides, the pIC50 is under 4.22 in the data set on Pichia kudriavzevii, 5.02 in the data set with Leishmania donovani, under 4.22 in the data set on Nakaseomyces glabratus and 4.93 in the data set with Cryptococcus neoformans. The CC50 in [2] was over 16.2 µM. For the same compound, in the data set with Leishmania donovani, the IC90 was determined as 24.6 µM.
For `C[C@@H]1[C@H](O)[C@@H](C)/C=C/C=C/C=C/C=C/C=C/C=C/C=C/[C@H](O[C@@H]2O[C@H](C)[C@@H](O)[C@H](N)[C@@H]2O)C[C@@H]2O[C@](O)(C[C@@H](O)C[C@@H](O)[C@H](O)CC[C@@H](O)C[C@@H](O)CC(=O)O[C@H]1C)C[C@H](O)[C@H]2C(=O)O` [AMPHOTERICIN B], the pIC50 in the data set with Pichia kudriavzevii is 6.11; in the data set with Leishmania donovani it was 6.51; with Nakaseomyces glabratus, 6.55; with Cryptococcus neoformans, 6.46. Also, the CC50 in [2] turned out to be 7.6 µM. Also, the IC90 in the data set with Leishmania donovani was 1.09 µM. In addition, in the data set on Candida albicans, the “growth inhibition (GI)” value is “inactive”.

By pIC50 is commonly meant −log10 of the IC50, conventionally taken in molar units. One may read the IC90 as the point of the concentration-response curve where the effect stands at 90%.
